A word on the IC50: it is the concentration at which inhibition is half-maximal.

We go through 19 compounds from patent US10894784B2, “Heteroarylbenzimidazole compounds” (BAYER PHARMA AKTIENGESELLSCHAFT, priority 2015, dated 2021).

Structures are written as SMILES.

In one assay the target is TBK1 (Homo sapiens (Human), UniProt Q9UHD2). The experiment in a line: TBK1 low ATP kinase assay (in vitro assay 1). To be noted: TBK1 low ATP kinase assay IC50, in vitro assay 1. It counts as biochemical.
TBK1, sequence (Q9UHD2 whole entry): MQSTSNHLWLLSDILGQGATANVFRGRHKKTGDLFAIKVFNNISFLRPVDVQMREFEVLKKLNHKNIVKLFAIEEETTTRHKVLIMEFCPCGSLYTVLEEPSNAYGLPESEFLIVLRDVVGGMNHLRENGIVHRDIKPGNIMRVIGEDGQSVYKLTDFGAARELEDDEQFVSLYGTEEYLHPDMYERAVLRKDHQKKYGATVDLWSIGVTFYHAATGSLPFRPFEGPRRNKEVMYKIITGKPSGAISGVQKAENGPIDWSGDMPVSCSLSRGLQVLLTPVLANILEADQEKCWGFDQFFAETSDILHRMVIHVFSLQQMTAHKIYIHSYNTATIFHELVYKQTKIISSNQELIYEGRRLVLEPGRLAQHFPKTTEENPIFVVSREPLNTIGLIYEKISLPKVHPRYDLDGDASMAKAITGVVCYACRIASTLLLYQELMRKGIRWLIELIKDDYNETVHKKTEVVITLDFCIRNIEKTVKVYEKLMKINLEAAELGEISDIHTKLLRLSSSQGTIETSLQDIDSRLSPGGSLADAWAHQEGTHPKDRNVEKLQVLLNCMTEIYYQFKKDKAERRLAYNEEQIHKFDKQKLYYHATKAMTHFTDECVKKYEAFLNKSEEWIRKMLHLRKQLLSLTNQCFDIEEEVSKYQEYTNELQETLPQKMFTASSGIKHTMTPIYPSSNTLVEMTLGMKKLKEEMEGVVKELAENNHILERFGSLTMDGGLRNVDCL
Compound `CC(c1ccnc(Nc2nc3ccc(-c4cc(N(C)C)ncn4)cc3[nH]2)c1)N1CCN(C(=O)CC(F)(F)F)CC1` (single isomer, unassigned) [Example 100.01, 1-(4-{(1R or 1S)-1-[2-({6-[6-(dimethylamino)pyrimidin-4-yl]-1H-benzimidazol-2-yl}amino)pyridin-4-yl]ethyl}piperazin-1-yl)-3,3,3-trifluoropropan-1-one] displayed an IC50 of 0.0015 µM.

Staying with this assay, now noted: in vitro assay 1, read-out: TBK1 low ATP kinase assay IC50.
`Cc1cc(-c2ccc3nc(Nc4cc(CN5CCN(C(=O)OC(C)(C)C)CC5)ccn4)[nH]c3c2)c(F)cn1` [Example 131.01, tert-butyl 4-[(2-{[6-(5-fluoro-2-methylpyridin-4-yl)-1H-benzimidazol-2-yl]amino}pyridin-4-yl)methyl]piperazine-1-carboxylate]: the 50% inhibitory concentration (IC50) was found to be 0.14 µM. On to `COc1cccnc1N1CCN(Cc2ccnc(Nc3nc4ccc(-c5nc(C)no5)cc4[nH]3)c2)CC1` [Example 101.17, N-(4-{[4-(3-methoxypyridin-2-yl)piperazin-1-yl]methyl}pyridin-2-yl)-6-(3-methyl-1,2,4-oxadiazol-5-yl)-1H-benzimidazol-2-amine], for which the IC50 was determined as 0.15 µM. Regarding `CC(C)Nc1cc(-c2ccc3nc(Nc4cc(CN5CCN(C(=O)CC(F)(F)F)CC5)ccn4)[nH]c3c2)ncn1` [Example 154.02, 3,3,3-trifluoro-1-(4-{[2-({6-[6-(propan-2-ylamino)pyrimidin-4-yl]-1H-benzimidazol-2-yl}amino)pyridin-4-yl]methyl}piperazin-1-yl)propan-1-one], the IC50 amounted to 0.0033 µM. `O=C(C1CC1)N1CCN(Cc2ccnc(Nc3nc4ccc(-c5ncnc(NC6CC6)c5F)cc4[nH]3)c2)CC1` [Example 192.03, cyclopropyl(4-{[2-({6-[6-(cyclopropylamino)-5-fluoropyrimidin-4-yl]-1H-benzimidazol-2-yl}amino)pyridin-4-yl]mnethyl}piperazin-1-yl)methanone]: the IC50 was 0.0083 µM. Still for that read-out and setting: in the case of `CC(c1ccnc(Nc2nc3ccc(-c4cnn(CC5CC5(F)F)c4)cc3[nH]2)c1)N1CCN(C(=O)CC(F)(F)F)CC1` (single isomer, unassigned) [Example 55.02.02, 1-{4-[(1R or 1S)-1-(2-{[6-(1-{[(1R or IS)-2,2-difluorocyclopropyl]methyl}-1H-pyrazol-4-yl)-1H-benzimidazol-2-yl]amino}pyridin-4-yl)ethyl]piperazin-1-yl}-3,3,3-trifluoropropan-1-one] it was 0.0013 µM; in that of `CN(C)c1cnc(-c2ccc3nc(Nc4cc(CN5CCN(C(=O)OC(C)(C)C)CC5)ccn4)[nH]c3c2)cn1` [Example 144.01, tert-butyl 4-{[2-({6-[5-(dimethylamino)pyrazin-2-yl]-1H-benzimidazol-2-yl}amino)pyridin-4-yl]methyl}piperazine-1-carboxylate], 0.51 µM. Regarding `Cc1c(-c2ccc3nc(Nc4cc(CN5CCN(C(=O)CC(F)(F)F)CC5)ccn4)[nH]c3c2)ncnc1C(F)(F)F` [Example 183.02, 3,3,3-trifluoro-1-(4-{[2-({6-[5-methyl-6-(trifluoromethyl)pyrimidin-4-yl]-1H-benzimidazol-2-yl}amino)pyridin-4-yl]methyl}piperazin-1-yl)propan-1-one], the IC50 is 2.1 µM. `CCn1cc(-c2ccc3nc(Nc4cc(CN5CCN(C(=O)CC(F)(F)F)CC5)ccn4)[nH]c3c2)cn1` [Example 38.02, 1-{4-[(2-{[6-(1-ethyl-1H-pyrazol-4-yl)-1H-benzimidazol-2-yl]amino}pyridin-4-yl)methyl]piperazin-1-yl}-3,3,3-trifluoropropan-1-one]: the IC50 stood at 0.0504 µM. As for `COc1c(NCC2CC2)ncnc1-c1ccc2nc(Nc3cc(CN4CCN(C(=O)OC(C)(C)C)CC4)ccn3)[nH]c2c1` [Example 109.01.01, tert-butyl 4-({2-[(6-{6-[(cyclopropylmethyl)amino]-5-methoxypyrimidin-4-yl}-1H-benzimidazol-2-yl)amino]pyridin-4-yl}methyl)piperazine-1-carboxylate], the IC50 stood at 0.0092 µM. For the compound `CC(c1ccnc(Nc2nc3ccc(-c4cnn(CC5(C)CC5)c4)cc3[nH]2)c1)N1CCN(C(=O)OC(C)(C)C)CC1` (single isomer, unassigned) [Example 68.01, tert-butyl 4-[(1R or 1S)-1-{2-[(6-{1-[(1-methylcyclopropyl)methyl]-1H-pyrazol-4-yl}-1H-benzimidazol-2-yl)amino]pyridin-4-yl}ethyl]piperazine-1-carboxylate], the half-inhibitory concentration (IC50) was 0.026 µM. On to `Cc1noc(-c2ccc3nc(Nc4cc(CN5CCN(c6ccccc6)CC5)ccn4)[nH]c3c2)n1` [Example 101.04, 6-(3-methyl-1,2,4-oxadiazol-5-yl)-N-{4-[(4-phenylpiperazin-1-yl)methyl]pyridin-2-yl}-1H-benzimidazol-2-amine], for which the IC50 came out at 3 µM. Consider `COc1cnccc1-c1ccc2nc(Nc3cc(CN4CCN(C(=O)CC5CC5)CC4)ccn3)[nH]c2c1` [Example 04.05, 2-cyclopropyl-1-{4-[(2-{[6-(3-methoxypyridin-4-yl)-1H-benzimidazol-2-yl]amino}pyridin-4-yl)methyl]piperazin-1-yl}ethanone], for which the IC50 is 0.0253 µM. Regarding `O=C(C1CC1)N1CCN(Cc2ccnc(Nc3nc4ccc(-c5cc(N6CCCCC6)ncn5)cc4[nH]3)c2)CC1` [Example 145.03, cyclopropyl(4-{[2-({6-[6-(piperidin-1-yl)pyrimidin-4-yl]-1H-benzimidazol-2-yl}amino)pyridin-4-yl]methyl}piperazin-1-yl)methanone], the IC50 worked out at 0.0021 µM. With `O=C(C1CC1)N1CCN(Cc2ccnc(Nc3nc4ccc(-c5nc(C6CC6)no5)cc4[nH]3)c2)CC1` [Example 17.05, cyclopropyl{4-[(2-{[6-(3-cyclopropyl-1,2,4-oxadiazol-5-yl)-1H-benzimidazol-2-yl]amino}pyridin-4-yl)methyl]piperazin-1-yl}methanone], the IC50 amounted to 0.0382 µM.

Regarding `O=C(CC(F)(F)F)N1CCN(Cc2ccnc(Nc3nc4ccc(-c5cnc(Cl)cn5)cc4[nH]3)c2)CC1` [Example 140.02, 1-{4-[(2-{[6-(5-chloropyrazin-2-yl)-1H-benzimidazol-2-yl]amino}pyridin-4-yl)methyl]piperazin-1-yl}-3,3,3-trifluoropropan-1-one], the IC50 worked out at 0.54 µM. For the compound `O=C(CC(F)(F)F)N1CCN(Cc2ccnc(Nc3nc4ccc(-c5ncnc6ccoc56)cc4[nH]3)c2)CC1` [Example 168.02, 3,3,3-trifluoro-1-{4-[(2-{[6-(furo[3,2-d]pyrimidin-4-yl)-1H-benzimidazol-2-yl]amino}pyridin-4-yl)methyl]piperazin-1-yl}propan-1-one], the IC50 is 0.00418 µM.

With `O=C(C1CCC1)N1CCN(Cc2ccnc(Nc3nc4ccc(-c5nc(C6CC6)no5)cc4[nH]3)c2)CC1` [Example 17.06, cyclobutyl{4-[(2-{[6-(3-cyclopropyl-1,2,4-oxadiazol-5-yl)-1H-benzimidazol-2-yl]amino}pyridin-4-yl)methyl]piperazin-1-yl}methanone], the IC50 was 0.0613 µM. Same read-out and setting: in the case of `CC(C)(C)OC(=O)N1CCN(Cc2ccnc(Nc3nc4ccc(-c5ncccn5)cc4[nH]3)c2)CC1` [Example 180.01, tert-butyl 4-[(2-{[6-(pyrimidin-2-yl)-1H-benzimidazol-2-yl]amino}pyridin-4-yl)methyl]piperazine-1-carboxylate] it was 0.576 µM.
